Patent publication US10030042B2, “Synthesis of bicyclic nucleosides” (MiRagen Therapeutics, Inc., priority 2014, dated 2018)
“Also recorded” adds a separate entry of the source. Oligonucleotides are written 5' to 3', each unit as a sugar letter and its base; * is a phosphorothioate linkage, no mark a phosphodiester; rarer units and linkages stand in square brackets, end groups in braces. Plain capitals give the bases only. [aminoLNA-N] = amino locked nucleic acid nucleoside (N: the base); l = locked nucleic acid (LNA); d = 2'-deoxy (DNA)

Experiments:
[1] = system: mature human miR-208a (22 nucleotide RNA complement); assay: Duplex melting temperature (Tm) of anti-208a oligonucleotides annealed to complementary RNA; assay type: binding; conditions: for Tm: RNA complement; for ΔTm, DNA: difference to fully DNA phosphodiester 10931
Procedure: The melting temperature (Tm) of modified 16 nucleotide phosphodiester strands were determined and compared to the Tm of identical 16 nucleotide sequences having natural phosphodiester DNA nucleotides. Specifically, the relative aminoCBBN melting temperature (Tm) compared to the 2′-deoxynucleoside or oxoCBBN nucleoside with the same nucleobase was determined on a per incorporation basis by determining the difference between the melting temperature of the amino-modified 16 nucleotide length phosphodiester strand and that of the identical 16 nucleotide sequence utilizing either the 2′-deoxynucleoside or oxoCBBN phosphodiester DNA nucleotide. Tm differences of substitutions were compared only when they were placed in the same position of the sequence.
For example, the modified anti-208a oligonucleotides were annealed to the complementary sequence, twenty-two nucleotides in length, comprised of RNA nucleosides and a phosphate backbone. The complementary sequence was identical to the endogenous mature miRNA. Thermal denaturation temperatures (Tm) were measured as a maximum of the first derivative plot of melting curvex (A260 vs. Temp). The duplexes were constituted at 1 μM in a 0.9% NaCl buffer. Temperature was ramped from 25° C. to 95° C. at 1° C./min and OD's at 260 nm were read once per 30 seconds. Tm values are averages of at least two measurements.
Duplex melting temperatures for various modifications of a 16 nucleotide sequence, complementary to a nucleotide sequence of mature human miR-208a were measured using a Varian Cary 1E UV-Vis Spectrophotometer. Anti-miRNA 208a oligonucleotide sequences tested included a fully DNA phosphodiester (compound M-10931 (SEQ ID NO:9)), four DNA phosphodiester oligonucleotides with 1, 2 or 3 aminoCBBN thymidine residues in place of dT residues (compounds M-11915 (SEQ ID NO: 1), M-11916 (SEQ ID NO:2), M-11917 (SEQ ID NO:3), and M-11918 (SEQ ID NO:4)), mixed 9 LNA/7 DNA phosphorothioate oligonucleotide (compound M-10101 (SEQ ID NO:10)), and 2 mixed LNA/DNA/aminoCBBN phosphorothioate oligonucleotides where LNA thymidines of the parent compound, compound M-10101 (SEQ ID NO: 10), were replaced with either 1 or 2 aminoCBBN residues (compounds M-11920 (SEQ ID NO:6) and M-11919 (SEQ ID NO:5)). Duplexes were constituted at 1 μM in 0.9% NaCl. Temperature was ramped from 25° C. to 95° C. at 1° C./min and OD's at 260 nm were read once per 30 seconds.

RNA Complement = conditions: Table 3, cited from earlier work; for Tm: DNA 9mer, phosphate backbone, RNA complement, literature values
miR-208a = assay: Dual-luciferase reporter assay in HeLa cells stably expressing miR-208a; assay type: cell-based, human; conditions: FIG. 4; renilla/firefly luminescence, 24 hours after transfection, in words
Procedure: A HeLa cell line stably expressing miR-208a was generated. Specifically, a miRNA expression vector (Cell BioLabs, Inc.) expressing miR-208a was transfected into HeLa cells. Cells were then selected using a puromycin selection screen and clones which had detectable miR-208a expression as measured by qPCR were isolated (Ct value=˜30).
The cells were plated in a black-walled 96 well plate with 10,000 cells per well. After twenty-four hours following plating, the cells were transfected with a dual-luciferase plasmid containing the miR-208a binding site in the 3′ UTR of the renilla gene and various miR-208a inhibitors (compounds M-11919 (SEQ ID NO:5), M-11920 (SEQ ID NO:6), and M-10101 (SEQ ID NO:10)). Compound M-10591 was a non-targeting control. The cells were incubated for 24 hours at 37° C. and then both firefly (as a transfection normalization) and renilla levels were measured by luminescence using the Dual-Luciferase Reporter Assay System (Promega). Data was normalized to cells treated with only the miR-208a dual luciferase plasmid (psi check 208a).

[2] = Table 3, PS backbone 10101-like
[3] = Table 1, phosphate backbone, duplex 1 μM in 0.9% NaCl
[4] = Table 3, PS backbone, versus parent 10101

Work on “ICs; dTs; dTs; dTs; ITs; ITs; dGs; ICs; dTs; ICs; IGs; dTs; ICs; dTs; ITs; IA [Compound M-10101, reference compound]” yielded a Tm [1, 2] of 86.7 °C.

With “bC.bT.bT.bT.bT.bT.dG.bC.bT.bC. dG.bT.bC.bT.bT.dA [Compound M-10924]” the “ΔTm, DNA” value ([1]; Table 1) was 36.7 °C, the ΔTm/mod ([1]; Table 1, per modification, versus DNA) was 2.8 °C/modification and the Tm [1, 3] was 89.8 °C.

In the case of “dC; dT; dT; dT; dT; dT; dG; dC; dT; dC; dG; dT; dC; dT; dT; dA (DNA CTTTTTGCTCGTCTTA; unmodified DNA) [Compound M-10931, reference compound]”, the “ΔTm, DNA” value ([1]; Table 1) is reported as 0 °C and the Tm [1, 3] is reported as 53.1 °C.

In the case of “dG; IT; dG; dA; IT; dA; IT; dG; dC (DNA dGlTdGdAlTdAlTdGdC) [DNA_9mer_PO_3LNA-T, literature DNA 9mer phosphodiester with three LNA-T]”, the Tm (RNA Complement) is listed as 50 °C.

For “dG; aIT; dG; dA; aIT; dA; aIT; dG; dC (DNA dG[aminoLNA-T]dGdA[aminoLNA-T]dA[aminoLNA-T]dGdC) [DNA_9mer_PO_3aminoLNA-T, literature DNA 9mer phosphodiester with three aminoLNA-T]”, the Tm (RNA Complement) is given as 47 °C, the “ΔTm, parent” value (RNA Complement; aminoLNA 9mer versus LNA 9mer) is given as −1 °C and the ΔTm/mod (RNA Complement; aminoLNA 9mer versus LNA 9mer) is given as −1 °C/modification.

In the case of “lCs.dTs.dTs.dTs.abTs.abTs.dGs. lCs.dTs.lCs.lGs.dTs.lCs.dTs.lTs.lA [Compound M-11919]”, the Tm [1, 2] is reported as 80.04 °C, the “ΔTm, parent” value [1, 4] is reported as −6.66 °C and the ΔTm/mod [1, 4] is reported as −6.66 °C/modification. For the same substance, the miR-208a inhibition activity (miR-208a) was “comparable activity as compound M-10101; also recorded: retains all activity of the optimized M-10101”.

For “lCs.dTs.dTs.dTs.lTs.lTs.dGs.lCs. dTs.lCs.lGs.dTs.lCs.dTs.abTs.lA [Compound M-11920]”, the Tm [1, 2] was 85.125 °C, the “ΔTm, parent” value [1, 4] was −1.575 °C and the ΔTm/mod [1, 4] was −0.7875 °C/modification. The “Affinity for the miR-208a RNA (Tm data, in words)” value ([1]; comparison of M-11920 with M-11919) was “less affinity for the miR-208a RNA than the M-11919” and the miR-208a inhibition activity (miR-208a) was “slightly less activity compared to the other two inhibitors”.
